Laboratory results published in patent publication US8946257B2, “N-containing heteroaryl derivatives as JAK3 kinase inhibitors” (Vectura Limited, priority 2009, dated 2015).
Where a name gives a salt, the structure may show the parent alone.

Columns and labels:
[1] = target: catalytic domain of human JAK3 (Homo sapiens, UniProt P52333); experiment: Inhibition of JAK3 activity (Z'-Lyte Kinase Assay kit-Tyr 6 Peptide); format: biochemical
Protocol: The inhibition of JAK3 kinase activity was determined in 384-well assay microplates using the Z′-Lyte® Kinase Assay kit-Tyr 6 Peptide kit, supplied by Invitrogan (Ref: PV4122), following the manufacturer's instructions.
(§1) In a final volume of 10 μL per well, 2.5 μL of the product to be tested dissolved in 4% DMSO (final concentration of the product to be tested, 0.1-10000 nM) was incubated with 0.3 μg/mL of the catalytic domain of human JAK3 (amino acid sequence 281-1124), 2 μM of the substrate peptide Z′-Lyte® Tyr 6 and 4 μM of ATP; all components were dissolved in 50 mM pH 7.5 Hepes buffer, 10 mM Magnesium chloride (II), 1 mM EGTA and 0.01% Brij® 35. The reaction was started by the addition of said 4 μM ATP; after incubation for 1 hour at 25° C., 5 μL of A Z′-Lyte® Tyr 6 development reagent was added and the mixture was incubated for 1 hour at 25° C. Phosphorylation was then quantified in each well using a Safire2® fluorescence microplate reader from Tecan.

[2] = target: T1, catalytic domain of human JAK2 (Homo sapiens, UniProt O60674); experiment: Inhibition of JAK2 activity (Z'-Lyte Kinase Assay kit-Tyr 6 Peptide); format: biochemical
T1 construct: the catalytic domain of human JAK2
T1 sequence (O60674 849-1124 limits assumed): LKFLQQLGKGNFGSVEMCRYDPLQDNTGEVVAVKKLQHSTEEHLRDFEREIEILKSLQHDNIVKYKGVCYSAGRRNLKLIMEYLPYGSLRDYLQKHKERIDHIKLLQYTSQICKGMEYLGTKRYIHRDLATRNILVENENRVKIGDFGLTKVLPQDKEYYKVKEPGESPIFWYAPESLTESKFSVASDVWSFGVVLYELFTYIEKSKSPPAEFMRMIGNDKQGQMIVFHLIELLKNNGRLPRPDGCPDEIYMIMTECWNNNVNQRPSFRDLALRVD
Protocol: The inhibition of JAK2 kinase activity was determined in 384-well assay microplates using the Z′-Lyte® Kinase Assay kit-Tyr 6 Peptide kit, supplied by Invitrogen (Ref: PV4122), following the manufacturer's instructions.
as §1, with “with 0.5 μg/well” for “with 0.3 μg/mL”, “human JAK2,” for “human JAK3 (amino acid sequence 281-1124),”, “and 16” for “and 4”, “said 16” for “said 4”

Sequence of catalytic domain of human JAK3 (P52333 781-1124 limits assumed): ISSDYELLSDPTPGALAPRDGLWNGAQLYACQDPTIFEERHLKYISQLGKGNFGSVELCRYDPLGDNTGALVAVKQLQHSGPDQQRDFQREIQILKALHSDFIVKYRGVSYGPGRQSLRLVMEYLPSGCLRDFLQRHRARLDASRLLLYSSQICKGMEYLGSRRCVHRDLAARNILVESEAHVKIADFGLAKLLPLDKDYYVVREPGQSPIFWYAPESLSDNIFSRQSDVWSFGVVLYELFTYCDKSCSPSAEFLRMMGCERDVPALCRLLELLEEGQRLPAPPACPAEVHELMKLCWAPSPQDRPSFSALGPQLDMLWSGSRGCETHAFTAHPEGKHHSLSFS

Row | Compound | inhibition at 1 µM [1] [%] | inhibition at 1 µM [2] [%]
1 | CC(=O)N1CCC(n2c(=O)[nH]c3cnc(-c4cnn5ccc(C)cc45)nc32)CC1 [Example 1s, 9-(1-acetylpiperidin-4-yl)-2-(5-methylpyrazolo[1,5-a]pyridin-3-yl)-7H-purin-8(9H)-one] | > 50 | > 50
2 | N#Cc1ccn2ncc(-c3ccc4[nH]c(=O)n(C5CCOCC5)c4n3)c2c1 [Example 2, 3-(2-Oxo-3-(tetrahydro-2H-pyran-4-yl)-2,3-dihydro-1H-imidazo[4,5-b]pyridin-5-yl)pyrazolo[1,5-a]pyridine-5-carbonitrile] | > 50 | > 50
3 | O=c1[nH]c2ccc(-c3cnn4ccccc34)nc2n1C1CCOCC1 [Example 2e, 5-(pyrazolo[1,5-a]pyridin-3-yl)-3-(tetrahydro-2H-pyran-4-yl)-1H-imidazo[4,5-b]pyridin-2(3H)-one] | > 50 | > 50
4 | Cn1c(=O)n(C2CCOCC2)c2nc(-c3cnn4ccc(C#N)cc34)ncc21 [Example 4, 3-(7-Methyl-8-oxo-9-tetrahydro-2H-pyran-4-yl-8,9-dihydro-7H-purin-2yl)pyrazolo[1,5-a]pyridine-5-carbonitrile] | > 50 | > 50
5 | Cn1c(=O)n(C2CCOCC2)c2nc(-c3cnn4ccccc34)ccc21 [Example 5s, 1-methyl-5-(pyrazolo[1,5-a]pyridin-3-yl)-3-(tetrahydro-2H-pyran-4-yl)-1H-imidazo[4,5-b]pyridin-2(3H)-one] | > 50 | > 50
6 | O=c1[nH]c2ccc(-c3cnn4ccccc34)nc2n1[C@H]1CCCNC1 [Example 6x, (S)-3-(piperidin-3-yl)-5-(pyrazolo[1,5-a]pyridin-3-yl)-1H-imidazo[4,5-b]pyridin-2(3H)-one hydrochloride] | > 50 | –
7 | C[C@@H](C(=O)N(C)C)n1c(=O)[nH]c2cnc(-c3cnn4ccccc34)nc21 [Example 15k] | – | > 50
8 | COCCn1c(=O)n(C2CCOCC2)c2nc(-c3cnn4ccc(C#N)cc34)ncc21 [Example 16, 3-(7-(2-Methoxyethyl)-8-oxo-9-(tetrahydro-2H-pyran-4-yl)-8,9-dihydro-7H-purin-2-yl)pyrazolo[1,5-a]pyridine-5-carbonitrile] | – | > 50
9 | CN(C)CCn1c(=O)n([C@H]2CCCN(C(=O)CC#N)C2)c2nc(-c3cnn4ccc(C#N)cc34)ncc21 [Example 16a] | – | > 50
10 | Cc1nc2cnc(-c3cnn4ccc(C#N)cc34)nc2n1C1CCOCC1 [Example 18a] | – | > 50
11 | Cc1nc2cnc(-c3cnn4ccc(C#N)cc34)nc2n1C1CCC(F)(F)CC1 [Example 18b] | – | > 50
12 | N#Cc1ccn2ncc(-c3ccc4ncn(C5CCOCC5)c4n3)c2c1 [Example 19, 3-(3-(Tetrahydro-2H-pyran-4-yl)-3H-imidazo[4,5-b]pyridin-5-yl)pyrazolo[1,5-a]pyridine-5-carbonitrile] | – | > 50
13 | Cc1nc2ccc(-c3cnn4ccc(C#N)cc34)nc2n1C1CCOCC1 [Example 20, 3-(2-Methyl-3-(tetrahydro-2H-pyran-4-yl)-3H-imidazo[4,5-b]pyridin-5-yl)pyrazolo[1,5-a]pyridine-5-carbonitrile] | > 50 | > 50
14 | Cn1ccnc1-c1nc2cnc(-c3cnn4ccc(C#N)cc34)nc2n1C1CCOCC1 [Example 21, 3-(8-(1-Methyl-1H-imidazol-2-yl)-9-(tetrahydro-2H-pyran-4-yl)-9H-purin-2-yl)pyrazolo[1,5-a]pyridine-5-carbonitrile] | > 50 | –
15 | c1csc(-c2nc3cnc(-c4cnn5ccccc45)nc3n2C2CCOCC2)c1 [Example 21k] | – | > 50
16 | CCNc1nc2cnc(-c3cnn4ccc(C#N)cc34)nc2n1C1CCOCC1 [Example 22, 3-[8-(Ethylamino)-9-tetrahydro-2H-pyran-4-yl-9H-purin-2-yl]pyrazolo[1,5-a]pyridine-5-carbonitrile] | > 50 | > 50
17 | c1ccn2ncc(-c3ncc4nc(C5CCCC5)n(C5CCOCC5)c4n3)c2c1 [Example 23, 8-Cyclopentyl-2-(pyrazolo[1,5-a]pyridin-3-yl)-9-(tetrahydro-2H-pyran-4-yl)-9H-purine] | > 50 | > 50

Row | Compound | inhibition at 1 µM [1] [%] | inhibition at 1 µM [2] [%]
18 | c1ccn2ncc(-c3ncc4nc(C5CC5)n(C5CCOCC5)c4n3)c2c1 [Example 23d] | – | > 50
19 | Cn1c(=O)n([C@H]2CCCN(C(=O)C(C)(C)C)C2)c2nc(-c3cnn4ccccc34)ccc21 [Example 24a] | – | > 50
20 | CCC(=O)N1CCC[C@H](n2c(=O)n(C)c3ccc(-c4cnn5ccccc45)nc32)C1 [Example 24c] | – | > 50
21 | CCOC(=O)N1CCC[C@H](n2c(=O)[nH]c3cnc(-c4cnn5ccc(C#N)cc45)nc32)C1 [Example 26a] | – | > 50
22 | CC(C)NC(=O)N1CCC[C@H](n2c(=O)[nH]c3cnc(-c4cnn5ccc(C#N)cc45)nc32)C1 [Example 26c] | – | > 50
23 | CC(C)(C)NC(=O)N1CCC[C@H](n2c(=O)[nH]c3cnc(-c4cnn5ccc(C#N)cc45)nc32)C1 [Example 26d] | – | > 50
24 | CCOC(=O)n1c(=O)n([C@H]2CCCN(C(=O)CC#N)C2)c2nc(-c3cnn4ccccc34)ncc21 [Example 26e] | – | > 50
25 | CC(=O)n1c(=O)n([C@H]2CCCN(C(=O)CC#N)C2)c2nc(-c3cnn4ccccc34)ncc21 [Example 26f] | – | > 50
26 | CC(=O)N1CCC[C@H](n2c(=O)n(C)c3cnc(-c4cnn5ccccc45)nc32)C1 [Example 26g] | – | > 50
27 | N#Cc1ccn2ncc(-c3ncc4[nH]c(=O)n([C@H]5CCCN(C(=O)C6(O)CC6)C5)c4n3)c2c1 [Example 27a] | – | > 50
28 | C[C@H](CO)n1c(=O)[nH]c2cnc(-c3cnn4ccc(C#N)cc34)nc21 [Example 28, (R)-3-(9-(1-Hydroxypropan-2-yl)-8-oxo-8,9-dihydro-7H-purin-2-yl)pyrazolo[1,5-a]pyridine-5-carbonitrile] | > 50 | –
29 | C[C@H](CO)n1c(=O)n(C)c2cnc(-c3cnn4ccc(C#N)cc34)nc21 [Example 32, (R)-3-(9-(1-Hydroxypropan-2-yl)-7-methyl-8-oxo-8,9-dihydro-7H-purin-2-yl)pyrazolo[1,5-a]pyridine-5-carbonitrile] | > 50 | –
30 | CCC(=O)Nc1nc2cnc(-c3cnn4ccccc34)nc2n1C1CCOCC1 [Example 34b] | – | > 50
31 | Cn1c(=O)n([C@H]2CC[C@H](O)CC2)c2nc(-c3cnn4ccc(C#N)cc34)ncc21 [Example 35, 3-(9-(trans-4-Hydroxycyclohexyl)-7-methyl-8-oxo-8,9-dihydro-7H-purin-2-yl)pyrazolo[1,5-a]pyridine-5-carbonitrile] | > 50 | –
32 | N#Cc1ccn2ncc(-c3ncc4[nH]c(=O)n(CC(=O)NCC(F)(F)F)c4n3)c2c1 [Example 36, 2-(2-(5-Cyanopyrazolo[1,5-a]pyridin-3-yl)-8-oxo-7H-purin-9(8H)-yl)-N-(2,2,2-trifluoroethyl)acetamide] | > 50 | –
33 | Cn1c(=O)n(C2CCOCC2)c2nc(-c3cnc4ccccn34)ncc21 [Example 37, 2-(Imidazo[1,2-a]pyridin-3-yl)-7-methyl-9-(tetrahydro-2H-pyran-4-yl)-7H-purin-8(9H)-one] | > 50 | –
